Reference: US20240116946A1 (Gilead Sciences, Inc., priority 2022, published 2024)
Read-outs that look alike come from different tables or passages of the source.

What was measured:
[1] = target: recombinant SARS-CoV-2 Main protease (Mpro) (Severe acute respiratory syndrome coronavirus 2 (2019-nCoV) (SARS-CoV-2), UniProt P0DTD1); assay: Cov Mpro Biochemical IC50 Assay; conditions: read-out: MPro IC50
[2] = system: SARS-CoV-2-NLuc; assay: microbe, parasite or virus in culture; format: cell-based, SARS Coronavirus 2
[3] = recombinant SARS-CoV-2 Mpro 7.5 nM, fluorogenic peptide substrate 40 μM
[4] = Severe acute respiratory syndrome coronavirus, 48 h, read-out: MPro EC50
[5] = recombinant SARS-CoV-2 Mpro, fluorogenic peptide substrate
[6] = Severe acute respiratory syndrome coronavirus, 48 h; read-out: MPro EC50

Compound | IC50 [1, 3] [nM] | EC50 [2, 4] [nM] | IC50 [1, 5] [nM] | EC50 ([2]; read-out: MPro EC50) [nM] | EC50 [2, 6] [nM]
COc1cc(-c2cc3[nH]c(=O)n(-c4cncc5sc(C(C)(C)O)c(C)c45)c(=O)c3s2)c(Cl)cc1F [Example 671] | 5.85 | 7.44 | – | – | –
CC(=O)NCCn1c(=O)n(-c2cncc(C3CC3)c2)c(=O)c2sc(-c3ccccc3Cl)cc21 [Example 620] | 281 | 759 | – | – | –
COc1cc(-c2cc3[nH]c(=O)n(-c4cncc5ccccc45)c(=O)c3s2)c(C)cc1C [Example 717] | 23.8 | 25.3 | – | – | –
COc1ccc(Cl)c(-c2cc3[nH]c(=O)n(-c4cncc5ccccc45)c(=O)c3cc2OC)c1 [Example 309] | – | 26.7 | 56.9 | – | –
COc1cnc(C#N)c(-c2cc3c(s2)c(=O)n(-c2cncc4ccccc24)c(=O)n3CCC#N)c1 [Example 837, 3-(1-(2-cyanoethyl)-3-(isoquinolin-4-yl)-2,4-dioxo-1,2,3,4-tetrahydrothieno[3,2-d]pyrimidin-6-yl)-5-methoxypicolinonitrile] | 9.22 | 30.4 | – | – | –
COc1cc(Cl)c(-c2cc3[nH]c(=O)n(-c4cncc5ccccc45)c(=O)c3s2)cc1OC [Example 343] | – | 7.79 | 4.02 | – | –
Cn1ncc2cncc(-n3c(=O)c4sc(-c5ccc(F)cc5Cl)cc4n(CCC#N)c3=O)c21 (single isomer, unassigned) [Example 956, 3-(6-(2-chloro-4-fluorophenyl)-3-(1-methyl-1H-pyrazolo[4,3-c]pyridin-7-yl)-2,4-dioxo-3,4-dihydrothieno[3,2-d]pyrimidin-1(2H)-yl)propanenitrile] | > 1000 | – | – | 699 | –
O=c1[nH]c2cc(-c3c(Cl)cccc3OCc3ccnnc3)ccc2c(=O)n1-c1cncc2ccccc12 [Example 93] | – | 95 | 11.4 | – | –
COc1ccc(C#N)c(-c2cc3[nH]c(=O)n(-c4cncc5ccccc45)c(=O)c3cc2F)c1 [Example 428, 2-(6-fluoro-3-(isoquinolin-4-yl)-2,4-dioxo-1,2,3,4-tetrahydroquinazolin-7-yl)-4-methoxybenzonitrile] | 10.2 | 17.9 | – | – | –
Cn1ncc2cncc(-n3c(=O)c4sc(-c5cc(F)ccc5Cl)cc4n(CC#N)c3=O)c21 [Example 664] | 5.24 | 11.4 | – | – | –
O=c1[nH]c2cc(-c3ccccc3Cl)sc2c(=O)n1-c1cncc2ccc(N3CC(F)(F)OC(F)(F)C3)cc12 [Example 228] | – | 73.1 | 294 | – | –
Cc1cc(-c2cccc(Cl)c2-c2ccc3c(=O)n(-c4cncc5ccccc45)c(=O)[nH]c3c2)cnn1 [Example 234] | – | 21.2 | < 5.67 | – | –
COc1cc(-c2cc3[nH]c(=O)n(-c4cncc5cccc(F)c45)c(=O)c3s2)c(Cl)cc1F (single isomer, unassigned) [Example 899, 6-(2-chloro-4-fluoro-5-methoxyphenyl)-3-(5-fluoroisoquinolin-4-yl)thieno[3,2-d]pyrimidine-2,4(1H,3H)-dione] | 4.03 | – | – | 3.13 | –
Cc1nc2cncc(-n3c(=O)c4sc(-c5cc(F)c(F)cc5Cl)cc4n(CCC#N)c3=O)c2n1C [Example 860] | 39.4 | 212 | – | – | –
COc1cc(-c2cc3[nH]c(=O)n(-c4cncc5cccc(Cl)c45)c(=O)c3s2)c(Cl)cc1F [Example 1075] | 14.8 | – | – | 11.7 | –
O=c1[nH]c2cc(-c3cc(O)ccc3Cl)ccc2c(=O)n1-c1cncc2ccccc12 [Example 296] | – | 1430 | 384 | – | –
O=c1[nH]c2cc(-c3cccnc3Cl)sc2c(=O)n1-c1cncc2ccccc12 [Example 22] | – | 120 | 37.1 | – | –
CNC(=O)CCn1c(=O)n(-c2cncc(C3CC3)c2)c(=O)c2sc(-c3ccccc3Cl)cc21 [Example 619, 3-(6-(2-chlorophenyl)-3-(5-cyclopropylpyridin-3-yl)-2,4-dioxo-3,4-dihydrothieno[3,2-d]pyrimidin-1(2H)-yl)-N-methylpropanamide] | 245 | – | – | – | 451
Cc1nn(CC(F)(F)F)cc1-c1cccc(Cl)c1-c1ccc2c(=O)n(-c3cncc4ccccc34)c(=O)[nH]c2c1 [Example 285] | – | 25.5 | 19.2 | – | –
O=c1[nH]c2cc(-c3c(Cl)cccc3-c3cn(C4CC4)nn3)ccc2c(=O)n1-c1cncc2ccccc12 [Example 160, 7-(2-chloro-6-(1-cyclopropyl-1H-1,2,3-triazol-4-yl)phenyl)-3-(isoquinolin-4-yl)quinazoline-2,4(1H,3H)-dione] | – | 56.8 | 17.2 | – | –
COc1ccc(C#N)c(-c2ccc3c(=O)n(-c4cncc5ccccc45)c(=O)[nH]c3c2)c1 (single isomer, unassigned) [Example 569, 2-[3-(4-isoquinolyl)-2,4-dioxo-1H-quinazolin-7-yl]-4-methoxy-benzonitrile] | 8.41 | – | – | 20.5 | –

Compound | IC50 [1, 3] [nM] | EC50 [2, 4] [nM] | IC50 [1, 5] [nM] | EC50 ([2]; read-out: MPro EC50) [nM] | EC50 [2, 6] [nM]
Cc1cn(C)nc1-c1cccc(Cl)c1-c1ccc2c(=O)n(-c3cncc4ccccc34)c(=O)[nH]c2c1 [Example 258] | – | 75.9 | 61.3 | – | –
COc1ccc(F)c(-c2ccc3c(=O)n(-c4cncc5ccccc45)c(=O)[nH]c3c2)c1 [Example 254] | – | 277 | 107 | – | –
N#Cc1ccncc1-c1cc2[nH]c(=O)n(-c3cncc4ccccc34)c(=O)c2s1 [Example 535] | 39.6 | 432 | – | – | –
COc1ccc(Cl)c(-c2cc3[nH]c(=O)n(-c4cncc5ccccc45)c(=O)c3cc2F)c1 [Example 211] | – | – | 55.5 | – | 70.4
COc1cc(-c2cc3[nH]c(=O)n(-c4cncc5[nH]cc(C)c45)c(=O)c3s2)c(Cl)cc1F [Example 767] | 5.16 | 20.2 | – | – | –
O=c1[nH]c2cc(-c3ccccc3Cl)sc2c(=O)n1-c1cncc2ncccc12 [Example 134] | – | 150 | 63.3 | – | –
CN(C)c1cncc(-n2c(=O)[nH]c3cc(-c4ccccc4Cl)sc3c2=O)c1 [Example 380] | – | 770 | 5950 | – | –
CC(=O)N1CC2(C1)CN(c1ccc3cncc(-n4c(=O)[nH]c5cc(-c6ccccc6Cl)sc5c4=O)c3c1)C2 [Example 422] | 7.75 | – | – | – | 134
O=c1[nH]c2cc(-c3ccccc3Cl)sc2c(=O)n1-c1cncc2ccc(N3CC4(C3)CC(F)(F)C4)cc12 [Example 419] | 21.1 | 74.9 | – | – | –
COc1ccc(C#N)c(-c2cc3[nH]c(=O)n(-c4cncc5ccc(C(F)F)cc45)c(=O)c3s2)c1 [Example 224] | – | 124 | 10.2 | – | –
COc1cc(-c2cc3[nH]c(=O)n(-c4cncc(Cl)c4)c(=O)c3s2)c(Cl)cc1F [Example 715] | 4.63 | – | – | – | 9.94
COc1cc(-c2cc3c(s2)c(=O)n(-c2cncc4cnn(C)c24)c(=O)n3CCS(C)(=O)=O)c(Cl)cc1F [Example 1067, 6-(2-chloro-4-fluoro-5-methoxy-phenyl)-3-(1-methylpyrazolo[4,3-c]pyridin-7-yl)-1-(2-methylsulfonylethyl)thieno[3,2-d]pyrimidine-2,4-dione] | 27.2 | – | – | – | 57.8
O=c1[nH]c2cc(-c3ccccc3Cl)sc2c(=O)n1-c1cncc2ccc(N3CCOCC3)cc12 [Example 385, 6-(2-chlorophenyl)-3-(6-morpholinoisoquinolin-4-yl)thieno[3,2-d]pyrimidine-2,4(1H,3H)-dione] | – | 14 | 5.51 | – | –
O=c1[nH]c2nc(-c3ccccc3Cl)ccc2c(=O)n1-c1cncc2ccccc12 [Example 32] | – | – | 2280 | – | 7060
N#CCCn1c(=O)n(-c2cncc(F)c2)c(=O)c2sc(-c3ccc(F)cc3Cl)cc21 [Example 788] | 35.6 | 52.2 | – | – | –
COc1ccc(C#N)c(-c2cc3[nH]c(=O)n(-c4cncc5ccccc45)c(=O)c3cc2F)c1 (single isomer, unassigned) [Example 438, 2-(6-fluoro-3-(isoquinolin-4-yl)-2,4-dioxo-1,2,3,4-tetrahydroquinazolin-7-yl)-4-methoxybenzonitrile] | < 4.17 | – | – | < 11.4 | –
COCc1ccccc1-c1cc2[nH]c(=O)n(-c3cncc4ccccc34)c(=O)c2s1 [Example 17] | – | 160 | 35.1 | – | –
COc1ccc(C#N)c(-c2cc3[nH]c(=O)n(-c4cncc5cc(C(C)(C)O)sc45)c(=O)c3s2)c1 [Example 514] | 15.8 | 568 | – | – | –
COc1cnc(Cl)c(-c2cc3c(s2)c(=O)n(-c2cncc4nnn(C)c24)c(=O)n3CCC#N)c1 [Example 884] | 31.4 | 126 | – | – | –
COc1ccc(C#N)c(-c2ccc3c(=O)n(-c4cncc5ccc(N6CCOCC6)cc45)c(=O)[nH]c3c2)c1 [Example 431] | 10.5 | 71.3 | – | – | –
O=c1[nH]c2cc(-c3c(Cl)cccc3-c3cccnc3)ccc2c(=O)n1-c1cncc2ccccc12 [Example 187] | – | 17.6 | 29.4 | – | –
